# Test results published in US8952024B2, “Herbicidal pyrimidone derivatives” (E I du Pont de Nemours and Company, priority 2009, dated 2015).
# Legend:
# Experiment in all cases: Test B pre-/postemergence plant response
# Format in all cases: in vivo
# wild oat (Avena fatua) = test system: wild oat (Avena fatua)
# Method in brief: (§1)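 Test compounds, formulated in a non-phytotoxic solvent mixture with surfactant, are applied to the soil surface (loam and sand blend) right after seeding, or sprayed over plants at the 1- to 4-leaf stage grown in peat moss/vermiculite medium. After 13 to 15 days under glasshouse conditions, each species is scored visually from 0 (no effect) to 100 (complete control) against controls.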
# [1] = test system: ragweed (common ragweed, Ambrosia elatior)
# Method in brief: as §1
# [2] = test system: downy bromegrass (Bromus tectorum)
# Method in brief: as §1
# [3] = test system: pigweed (Amaranthus retroflexus)
# Method in brief: as §1
# [4] = test system: lambsquarters (Chenopodium album)
# Method in brief: as §1
# [5] = test system: yellow nutsedge (Cyperus esculentus)
# Method in brief: as §1
# [6] = test system: blackgrass (Alopecurus myosuroides)
# Method in brief: as §1
# [7] = test system: velvetleaf (Abutilon theophrasti)
# Method in brief: as §1
# [8] = test system: Italian ryegrass (Lolium multiflorum)
# Method in brief: as §1
# [9] = 62 g ai/ha, postemergence, 0 is no effect, 100 is complete control, 13 to 15 days
compound,measurement,setting,value
"O=C1CCCC(O)=C1C(=O)c1cnc(-c2ccccc2)n(C2CCCCC2)c1=O [Compound 128, 3-cyclohexyl-5-[(2-hydroxy-6-oxo-1-cyclohexen-1-yl)carbonyl]-2-phenyl-4(3H)-pyrimidinone]","Oat, Wild plant response rating (0 to 100 scale)",wild oat (Avena fatua); [9],50
same,pest or weed control at 31 g/ha,"wild oat (Avena fatua); Avena fatua, post-emergence, Postemergence, 31 g ai/ha, 0 to 100 scale (0 no effect, 100 complete control), read-out: Plant response rating, Oat, Wild",40%
same,pest or weed control at 125 g/ha,"wild oat (Avena fatua); Avena fatua, post-emergence, Postemergence, 125 g ai/ha, scale 0 to 100 (0 no effect, 100 complete control), read-out: Plant response rating, Oat, Wild",60%
same,pest or weed control at 250 g/ha,"wild oat (Avena fatua); Avena fatua, post-emergence, Postemergence, 250 g ai/ha, scale 0 to 100 (0 no effect, 100 complete control), 13 to 15 days, read-out: Plant response rating, Oat, Wild",80%
same,Ragweed plant response rating (0 to 100 scale),[1]; [9],85
same,pest or weed control at 31 g/ha,"[1]; Ambrosia artemisiifolia, post-emergence, 360 h, Postemergence, 31 g ai/ha, 0 to 100 scale (0 no effect, 100 complete control), read-out: Plant response rating, Ragweed",85%
same,pest or weed control at 125 g/ha,"[1]; Ambrosia artemisiifolia, post-emergence, 360 h, Postemergence, 125 g ai/ha, scale 0 to 100 (0 no effect, 100 complete control), read-out: Plant response rating, Ragweed",95%
same,pest or weed control at 250 g/ha,"[1]; Ambrosia artemisiifolia, post-emergence, 360 h, Postemergence, 250 g ai/ha, scale 0 to 100 (0 no effect, 100 complete control), 13 to 15 days, read-out: Plant response rating, Ragweed",98%
same,"Bromegrass, Downy plant response rating (0 to 100 scale)",[2]; [9],35
same,pest or weed control at 31 g/ha,"[2]; Bromus tectorum, post-emergence, Postemergence, 31 g ai/ha, 0 to 100 scale (0 no effect, 100 complete control), read-out: Plant response rating, Bromegrass, Downy",30%
same,pest or weed control at 125 g/ha,"[2]; Bromus tectorum, post-emergence, Postemergence, 125 g ai/ha, scale 0 to 100 (0 no effect, 100 complete control), read-out: Plant response rating, Bromegrass, Downy",40%
same,pest or weed control at 250 g/ha,"[2]; Bromus tectorum, post-emergence, Postemergence, 250 g ai/ha, scale 0 to 100 (0 no effect, 100 complete control), 13 to 15 days, read-out: Plant response rating, Bromegrass, Downy",50%
same,Pigweed plant response rating (0 to 100 scale),[3]; [9],98
same,pest or weed control at 31 g/ha,"[3]; Amaranthus retroflexus, post-emergence, Postemergence, 31 g ai/ha, 0 to 100 scale (0 no effect, 100 complete control), read-out: Plant response rating, Pigweed",95%
same,pest or weed control at 125 g/ha,"[3]; Amaranthus retroflexus, post-emergence, Postemergence, 125 g ai/ha, scale 0 to 100 (0 no effect, 100 complete control), read-out: Plant response rating, Pigweed",98%
same,pest or weed control at 250 g/ha,"[3]; Amaranthus retroflexus, post-emergence, Postemergence, 250 g ai/ha, scale 0 to 100 (0 no effect, 100 complete control), 13 to 15 days, read-out: Plant response rating, Pigweed",100%
same,Lambsquarters plant response rating (0 to 100 scale),[4]; [9],98
same,pest or weed control at 31 g/ha,"[4]; Chenopodium album, post-emergence, Postemergence, 31 g ai/ha, 0 to 100 scale (0 no effect, 100 complete control), read-out: Plant response rating, Lambsquarters",95%
same,pest or weed control at 125 g/ha,"[4]; Chenopodium album, post-emergence, Postemergence, 125 g ai/ha, scale 0 to 100 (0 no effect, 100 complete control), read-out: Plant response rating, Lambsquarters",100%
same,pest or weed control at 250 g/ha,"[4]; Chenopodium album, post-emergence, Postemergence, 250 g ai/ha, scale 0 to 100 (0 no effect, 100 complete control), 13 to 15 days, read-out: Plant response rating, Lambsquarters",100%
same,"Nutsedge, Yellow plant response rating (0 to 100 scale)",[5]; [9],35
same,pest or weed control at 31 g/ha,"[5]; Cyperus, post-emergence, Postemergence, 31 g ai/ha, 0 to 100 scale (0 no effect, 100 complete control), read-out: Plant response rating, Nutsedge, Yellow",20%
same,pest or weed control at 125 g/ha,"[5]; Cyperus, post-emergence, Postemergence, 125 g ai/ha, scale 0 to 100 (0 no effect, 100 complete control), read-out: Plant response rating, Nutsedge, Yellow",60%
same,pest or weed control at 250 g/ha,"[5]; Cyperus, post-emergence, Postemergence, 250 g ai/ha, scale 0 to 100 (0 no effect, 100 complete control), 13 to 15 days, read-out: Plant response rating, Nutsedge, Yellow",60%
same,Blackgrass plant response rating (0 to 100 scale),[6]; [9],5
same,pest or weed control at 31 g/ha,"[6]; Alopecurus myosuroides, post-emergence, 360 h, Postemergence, 31 g ai/ha, 0 to 100 scale (0 no effect, 100 complete control), read-out: Plant response rating, Blackgrass",5%
same,pest or weed control at 125 g/ha,"[6]; Alopecurus myosuroides, post-emergence, 360 h, Postemergence, 125 g ai/ha, scale 0 to 100 (0 no effect, 100 complete control), read-out: Plant response rating, Blackgrass",10%
same,pest or weed control at 250 g/ha,"[6]; Alopecurus myosuroides, post-emergence, 360 h, Postemergence, 250 g ai/ha, scale 0 to 100 (0 no effect, 100 complete control), 13 to 15 days, read-out: Plant response rating, Blackgrass",15%
same,Velvetleaf plant response rating (0 to 100 scale),[7]; [9],95
same,pest or weed control at 31 g/ha,"[7]; Abutilon theophrasti, post-emergence, 360 h, Postemergence, 31 g ai/ha, 0 to 100 scale (0 no effect, 100 complete control), read-out: Plant response rating, Velvetleaf",90%
same,pest or weed control at 125 g/ha,"[7]; Abutilon theophrasti, post-emergence, 360 h, Postemergence, 125 g ai/ha, scale 0 to 100 (0 no effect, 100 complete control), read-out: Plant response rating, Velvetleaf",95%
same,pest or weed control at 250 g/ha,"[7]; Abutilon theophrasti, post-emergence, 360 h, Postemergence, 250 g ai/ha, scale 0 to 100 (0 no effect, 100 complete control), 13 to 15 days, read-out: Plant response rating, Velvetleaf",100%
same,"Ryegrass, Italian plant response rating (0 to 100 scale)",[8]; [9],0
same,pest or weed control at 31 g/ha,"[8]; Lolium multiflorum, post-emergence, Postemergence, 31 g ai/ha, 0 to 100 scale (0 no effect, 100 complete control), read-out: Plant response rating, Ryegrass, Italian",0%
